This note sets out measurements from article PMC11050087, “Polyphenols from Maackia amurensis Heartwood Protect Neuronal Cells from Oxidative Stress and Prevent Herpetic Infection” (International Journal of Molecular Sciences, 2024).

The test deals with PQ-treated Neuro-2a cells. Nature of the test: ROS analysis in PQ-treated cells (H2DCF-DA). Particulars: PQ 1 mM. The format is cell-based, murine. On the procedure: We previously studied the effect of stilbens 9, 10, 11, and 13 on cell viability and ROS level in PQ-treated Neuro-2a cells. Here, we evaluated the neuroprotective potential against the toxic effect of PQ of stilbene 1, flavonoid 6 and isoflavonoids 2–5, 7, 12 (Figure 7a–d).
Figure 7 The effect of polyphenolic compounds isolated from M. amurensis heartwood on cell viability (a–c) and ROS levels (d) in Neuro-2a cells treated with PQ (1 mM). Polyphenolic compounds isolated from M. amurensis heartwood were used at concentrations 10, 1, 0.1 μM. The data are presented as means ± SEM of three independent replicates. (*), (**), and (***) indicate, respectively, p < 0.05, p < 0.005, and p < 0.001 versus PQ-treated cells.
After 24 h of adhesion, Neuro-2a cells (5 × 10^4 cells/mL) were incubated with polyphenolic compounds at concentrations of 0.1, 1, and 10 µM for 1 h. Then, 120 µM of 6-OHDA or 1 mM of PQ were added to each well, and cells were incubated for 1 h. To study the ROS formation, 20 µL of 2,7-dichlorodihydrofluorescein diacetate solution (H2DCF-DA, Sigma-Aldrich, St. Louis, MO, USA) were added to each well, so that the final concentration was 10 µM. Then, the microplate was incubated for 30 min at 37 °C.

Turning to `O=C1C[C@@H](c2ccc(O)cc2)Oc2cc(O)ccc21` [Compound 6, liquiritigenin], the “effect on ROS level in PQ-treated Neuro-2a cells (in words)” value is “effectively reduced the ROS level”.
